Experimental data as given in US20250228239A1, “MOLECULES HAVING PESTICIDAL UTILITY, AND INTERMEDIATES, COMPOSITIONS, AND PROCESSES, RELATED THERETO” (priority 2024, published 2025).
Like-named read-outs stand apart in the source and are kept apart here.

What was measured:
[1] = test system: Beet Armyworm (Spodoptera exigua, LAPHEG); assay: Bioassays on Beet Armyworm (BAW), 128-well diet tray assay; format: in vivo; conditions: Spodoptera exigua, read-out: BAW
Method in brief: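 Test molecule was dissolved in 90:10 acetone-water and applied at 50 μg/cm^2 onto artificial diet in eight wells, then dried. Second instar larvae, one to five per well, were added, and trays were kept vented at 25° C. with a 14:10 photoperiod for five to seven days before mortality was recorded.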

[2] = test system: Cabbage Looper (Trichoplusia ni, TRIPNI); assay: Bioassays on Cabbage Looper (CL), 128-well diet tray assay; format: in vivo; conditions: Trichoplusia ni, read-out: CL
Method in brief: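 Each of eight wells receives artificial diet treated at 50 μg/cm^2 with the test molecule, then one to five second-instar larvae. Incubation runs five to seven days at 25° C with a 14:10 light-dark cycle under vented covers. Mortality is scored per well as a percentage and averaged.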

[3] = Table ABC: Biological Results, species BAW
[4] = Table ABC: Biological Results, species CL

Structure (SMILES) | pest or weed control at 50 µg/cm2 [1, 3] | pest or weed control at 50 µg/cm2 [2, 4] | pest or weed control at 50 µg/cm2 ([1]; Beet Armyworm, rating class) | pest or weed control at 50 µg/cm2 ([2]; Cabbage Looper, rating class)
Nc1ccc(F)c(NC(=O)c2cc(NC(=O)[C@H]3[C@H](c4ccc(F)c(C(F)(F)F)c4)C3(Cl)Cl)cc(F)c2Cl)c1F [F1339, N-(3-Amino-2,6-difluorophenyl)-2-chloro-5-((1R,3R)-2,2-dichloro-3-(4-fluoro-3-(trifluoromethyl)phenyl)cyclopropane-1-carboxamido)-3-fluorobenzamide] | 50 to 100% | 50 to 100% | – | –
O=C(Nc1c(F)ccc(NC(=O)C(F)(F)F)c1F)c1cc(NC(=O)[C@H]2[C@H](c3cc(Cl)cc(Cl)c3)C2(Cl)Cl)cc(F)c1Cl [F1340, 2-Chloro-5-((1R,3R)-2,2-dichloro-3-(3,5-dichlorophenyl)cyclopropane-1-carboxamido)-N-(2,6-difluoro-3-(2,2,2-trifluoroacetamido)phenyl)-3-fluorobenzamide] | 50 to 100% | 50 to 100% | – | –
O=C(Nc1c(F)ccc(NC(=O)C(F)F)c1F)c1cc(NC(=O)[C@H]2[C@H](c3cc(Cl)cc(Cl)c3)C2(Cl)Cl)cc(F)c1Cl [F1341, 2-Chloro-5-((1R,3R)-2,2-dichloro-3-(3,5-dichlorophenyl)cyclopropane-1-carboxamido)-N-(3-(2,2-difluoroacetamido)-2,6-difluorophenyl)-3-fluorobenzamide] | 50 to 100% | 50 to 100% | – | –
O=C(Nc1c(F)ccc(NC(=O)C(F)(F)F)c1F)c1cc(NC(=O)[C@H]2[C@H](c3cc(Cl)c(Cl)c(Cl)c3)C2(Cl)Cl)cc(F)c1Cl [F1342, 2-Chloro-5-((1R,3R)-2,2-dichloro-3-(3,4,5-trichlorophenyl)cyclopropane-1-carboxamido)-N-(2,6-difluoro-3-(2,2,2-trifluoroacetamido)phenyl)-3-fluorobenzamide] | 50 to 100% | 50 to 100% | – | –
O=C(Nc1c(F)ccc(NC(=O)C(F)F)c1F)c1cc(NC(=O)[C@H]2[C@H](c3cc(Cl)c(Cl)c(Cl)c3)C2(Cl)Cl)cc(F)c1Cl [F1343, 2-Chloro-5-((1R,3R)-2,2-dichloro-3-(3,4,5-trichlorophenyl)cyclopropane-1-carboxamido)-N-(3-(2,2-difluoroacetamido)-2,6-difluorophenyl)-3-fluorobenzamide] | 50 to 100% | 50 to 100% | – | –
O=C(Nc1c(F)ccc(NC(=O)C(F)(F)F)c1F)c1cc(NC(=O)[C@H]2[C@H](c3ccc(Cl)c(Cl)c3)C2(Cl)Cl)cc(F)c1Cl [F1344, 2-Chloro-5-((1R,3R)-2,2-dichloro-3-(3,4-dichlorophenyl)cyclopropane-1-carboxamido)-N-(2,6-difluoro-3-(2,2,2-trifluoroacetamido)phenyl)-3-fluorobenzamide] | 50 to 100% | 50 to 100% | – | –
O=C(Nc1c(F)ccc(NC(=O)C(F)F)c1F)c1cc(NC(=O)[C@H]2[C@H](c3ccc(Cl)c(Cl)c3)C2(Cl)Cl)cc(F)c1Cl [F1345, 2-Chloro-5-((1R,3R)-2,2-dichloro-3-(3,4-dichlorophenyl)cyclopropane-1-carboxamido)-N-(3-(2,2-difluoroacetamido)-2,6-difluorophenyl)-3-fluorobenzamide] | 50 to 100% | 50 to 100% | – | –
O=C(Nc1c(F)ccc(NC(=O)C(F)(F)F)c1F)c1cc(NC(=O)[C@H]2[C@H](c3ccc(F)c(C(F)(F)F)c3)C2(Cl)Cl)cc(F)c1Cl [F1346, 2-Chloro-5-((1R,3R)-2,2-dichloro-3-(4-fluoro-3-(trifluoromethyl)phenyl)cyclopropane-1-carboxamido)-N-(2,6-difluoro-3-(2,2,2-trifluoroacetamido)phenyl)-3-fluorobenzamide] | 50 to 100% | 50 to 100% | – | –
O=C(Nc1c(F)ccc(NC(=O)C(F)F)c1F)c1cc(NC(=O)[C@H]2[C@H](c3ccc(F)c(C(F)(F)F)c3)C2(Cl)Cl)cc(F)c1Cl [F1347, 2-Chloro-5-((1R,3R)-2,2-dichloro-3-(4-fluoro-3-(trifluoromethyl)phenyl)cyclopropane-1-carboxamido)-N-(3-(2,2-difluoroacetamido)-2,6-difluorophenyl)-3-fluorobenzamide] | 50 to 100% | 50 to 100% | – | –
O=C(Nc1ccc(F)c(NS(=O)(=O)CCC(F)(F)F)c1F)c1cc(NC(=O)[C@H]2[C@H](c3ccc(F)c(C(F)(F)F)c3)C2(Cl)Cl)ccc1Cl [F1350, 2-Chloro-5-((1R,3R)-2,2-dichloro-3-(4-fluoro-3-(trifluoromethyl)phenyl)cyclopropane-1-carboxamido)-N-(2,4-difluoro-3-((3,3,3-trifluoropropyl)sulfonamido)phenyl)benzamide] | 50 to 100% | 50 to 100% | – | –
O=C(Nc1c(F)ccc(NC(=O)C(F)(F)Br)c1F)c1cc(NC(=O)[C@H]2[C@H](c3ccc(F)c(C(F)(F)F)c3)C2(Cl)Cl)cc(F)c1Cl [F1356, N-(3-(2-Bromo-2,2-difluoroacetamido)-2,6-difluorophenyl)-2-chloro-5-((1R,3R)-2,2-dichloro-3-(4-fluoro-3-(trifluoromethyl)phenyl)cyclopropane-1-carboxamido)-3-fluorobenzamide] | 50 to 100% | 50 to 100% | – | –
O=C(Nc1ccc(F)c(NS(=O)(=O)CC2CC2(Cl)Cl)c1F)c1cc(NC(=O)[C@H]2[C@H](c3ccc(F)c(C(F)(F)F)c3)C2(Cl)Cl)ccc1Cl (stereo partly drawn) [F1361, 2-Chloro-5-((1R,3R)-2,2-dichloro-3-(4-fluoro-3-(trifluoromethyl)phenyl)cyclopropane-1-carboxamido)-N-(3-(((2,2-dichlorocyclopropyl)methyl)sulfonamido)-2,4-difluorophenyl)benzamide] | 50 to 100% | 50 to 100% | – | –
Nc1cc(NC(=O)c2cc(NC(=O)[C@H]3[C@H](c4ccc(F)c(Cl)c4)C3(Cl)Cl)cc(F)c2Cl)c(F)cc1F [F1395, N-(5-Amino-2,4-difluorophenyl)-2-chloro-5-((1R,3R)-2,2-dichloro-3-(3-chloro-4-fluorophenyl)cyclopropane-1-carboxamido)-3-fluorobenzamide] | – | – | 50 to 100% | 50 to 100%
Nc1cc(NC(=O)c2cc(NC(=O)[C@H]3[C@H](c4ccc(Cl)c(Cl)c4)C3(Cl)Cl)cc(F)c2Cl)c(F)cc1F [F1396, N-(5-Amino-2,4-difluorophenyl)-2-chloro-5-((1R,3R)-2,2-dichloro-3-(3,4-dichlorophenyl)cyclopropane-1-carboxamido)-3-fluorobenzamide] | – | – | 50 to 100% | 50 to 100%
Nc1cc(NC(=O)c2cc(NC(=O)[C@H]3[C@H](c4cc(Cl)c(Cl)c(Cl)c4)C3(Cl)Cl)cc(F)c2Cl)c(F)cc1F [F1397, N-(5-Amino-2,4-difluorophenyl)-2-chloro-5-((1R,3R)-2,2-dichloro-3-(3,4,5-trichlorophenyl)cyclopropane-1-carboxamido)-3-fluorobenzamide] | – | – | 50 to 100% | 50 to 100%
Nc1cc(NC(=O)c2cc(NC(=O)[C@H]3[C@H](c4ccc(F)c(C(F)(F)F)c4)C3(Cl)Cl)cc(F)c2Cl)c(F)cc1F [F1398, N-(5-Amino-2,4-difluorophenyl)-2-chloro-5-((1R,3R)-2,2-dichloro-3-(4-fluoro-3-(trifluoromethyl)phenyl)cyclopropane-1-carboxamido)-3-fluorobenzamide] | – | – | 50 to 100% | 50 to 100%
Nc1cc(NC(=O)c2cc(NC(=O)[C@H]3[C@H](c4cc(Cl)cc(Cl)c4)C3(Cl)Cl)cc(F)c2Cl)c(F)cc1F [F1399, N-(5-Amino-2,4-difluorophenyl)-2-chloro-5-((1R,3R)-2,2-dichloro-3-(3,5-dichlorophenyl)cyclopropane-1-carboxamido)-3-fluorobenzamide] | – | – | 50 to 100% | 50 to 100%
O=C(Nc1cc(NC(=O)C(F)F)c(F)cc1F)c1cc(NC(=O)[C@H]2[C@H](c3ccc(F)c(Cl)c3)C2(Cl)Cl)cc(F)c1Cl [F1400, 2-Chloro-5-((1R,3R)-2,2-dichloro-3-(3-chloro-4-fluorophenyl)cyclopropane-1-carboxamido)-N-(5-(2,2-difluoroacetamido)-2,4-difluorophenyl)-3-fluorobenzamide] | – | – | 50 to 100% | 50 to 100%
O=C(Nc1cc(NC(=O)C(F)(F)F)c(F)cc1F)c1cc(NC(=O)[C@H]2[C@H](c3ccc(F)c(Cl)c3)C2(Cl)Cl)cc(F)c1Cl [F1401, 2-Chloro-5-((1R,3R)-2,2-dichloro-3-(3-chloro-4-fluorophenyl)cyclopropane-1-carboxamido)-N-(2,4-difluoro-5-(2,2,2-trifluoroacetamido)phenyl)-3-fluorobenzamide] | – | – | 50 to 100% | 50 to 100%
O=C(Nc1cc(NC(=O)C(F)F)c(F)cc1F)c1cc(NC(=O)[C@H]2[C@H](c3ccc(Cl)c(Cl)c3)C2(Cl)Cl)cc(F)c1Cl [F1402, 2-Chloro-5-((1R,3R)-2,2-dichloro-3-(3,4-dichlorophenyl)cyclopropane-1-carboxamido)-N-(5-(2,2-difluoroacetamido)-2,4-difluorophenyl)-3-fluorobenzamide] | – | – | 50 to 100% | 50 to 100%
O=C(Nc1cc(NC(=O)C(F)(F)F)c(F)cc1F)c1cc(NC(=O)[C@H]2[C@H](c3ccc(Cl)c(Cl)c3)C2(Cl)Cl)cc(F)c1Cl [F1403, 2-Chloro-5-((1R,3R)-2,2-dichloro-3-(3,4-dichlorophenyl)cyclopropane-1-carboxamido)-N-(2,4-difluoro-5-(2,2,2-trifluoroacetamido)phenyl)-3-fluorobenzamide] | – | – | 50 to 100% | 50 to 100%
